These results are taken from patent US20210317092A1 (BAYER PHARMA AKTIENGESELLSCHAFT, priority 2016, published 2021).

In the first test the target is T1, human Bradykinin B1 receptor (Homo sapiens, UniProt P46663).
T1 construct: host or cells: CHO-K1
T1 sequence (P46663 1-353): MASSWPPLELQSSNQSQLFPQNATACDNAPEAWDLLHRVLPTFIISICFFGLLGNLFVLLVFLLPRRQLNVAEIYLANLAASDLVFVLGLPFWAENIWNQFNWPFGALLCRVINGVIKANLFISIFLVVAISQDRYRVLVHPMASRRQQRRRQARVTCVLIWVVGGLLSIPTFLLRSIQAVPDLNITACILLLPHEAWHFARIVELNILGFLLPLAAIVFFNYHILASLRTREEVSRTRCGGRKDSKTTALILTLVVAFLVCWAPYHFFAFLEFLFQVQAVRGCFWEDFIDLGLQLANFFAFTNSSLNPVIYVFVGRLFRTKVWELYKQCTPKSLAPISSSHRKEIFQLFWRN
Put plainly: Calcium flux Assay (FLIPR) with recombinant CHO-K1 cells expressing human Bradykinin B1 receptor, in presence (hB1 IC50) or absence (hB1 free IC50) of 0.1% BSA. As to conditions: in absence of 0.1% BSA, read-out: hB1 free IC50. In kind it is cell-based.
Turning to `O=C(Nc1ccc(-c2ccc(C(F)F)nc2)c(-c2nnn[nH]2)c1)C1(c2ccc(OC(F)(F)F)cc2F)CC1` [Example 276, N-{4-[6-(difluoromethyl)pyridin-3-yl]-3-(1H-tetrazol-5-yl)phenyl}-1-[2-fluoro-4-(trifluoromethoxy)phenyl]cyclo-propanecarboxa-mide], the IC50 was 0.00183 µM. Same read-out and setting: for `CC(F)(F)c1ccc(-c2ccc(NC(=O)C3(c4ccc(C(F)(F)F)cc4)CC3)cc2-c2nnn[nH]2)cn1` [Example 277, N-{4-[6-(1,1-difluoroethyl)py-ridin-3-yl]-3-(1H-tetrazol-5-yl)phenyl}-1-[4-(trifluoromethyl)phenyl]cyclopro-panecarboxamide] the value was 0.00319 µM; for `CC(F)(F)c1ccc(-c2ccc(NC(=O)C3(c4ccc(OC(F)(F)F)cc4)CC3)cc2-c2nnn[nH]2)cn1` [Example 278, N-{4-[6-(1,1-difluroethyl)py-ridin-3-yl]-3-(1H-tetrazol-5-yl)phenyl}-1-[4-(trifluoromethoxy)phenyl]cyclo-propanecarboxa-mide], 0.00362 µM. As to `Cc1ccc(C2(C(=O)Nc3ccc(-c4ccc(C(C)(F)F)nc4)c(-c4nnn[nH]4)c3)CC2)c(F)c1` [Example 280, N-{4-[6-(1,1-difluoroethyl)py-ridin-3-yl]-3-(1H-tetrazol-5-yl)phenyl}-1-(2-fluoro-4-methylphenyl)cy-clopropanecar-boxamide], the IC50 was 0.0113 µM. Still for that read-out and setting: then `CC(F)(F)c1ccc(-c2ccc(NC(=O)C3(c4ccc(OC(F)(F)F)cc4F)CC3)cc2-c2nnn[nH]2)cn1` [Example 282, N-{4-[6-(1,1-difluoroethyl)py-ridin-3-yl]-3-(1H-tetrazol-5-yl)phenyl}-1-[2-fluoro-4-(trifluoromethoxy)phenyl]cyclo-propanecarboxa-mide], with 0.00349 µM; and `CCC(F)(F)c1ccc(-c2ccc(NC(=O)C3(c4cccc(Cl)c4)CC3)cc2-c2nnn[nH]2)cn1` [Example 283, 1-(3-chlorophenyl)-N-{4-[6-(1,1-difluoropropyl)py-ridin-3-yl]-3-(1H-tetrazol-5-yl)phenyl}cyclopro-panecarboxa-mide], with 0.00819 µM. Still for that read-out and setting: for `CCC(F)(F)c1ccc(-c2ccc(NC(=O)C3(c4ccc(F)c(F)c4)CC3)cc2-c2nnn[nH]2)cn1` [Example 284, 1-(3,4-difluorophenyl)-N-{4-[6-(1,1-difluoropropyl)py-ridin-3-yl]-3-(1H-tetrazol-5-yl)phenyl}cyclopro-panecarboxa-mide] the value was 0.0153 µM. `CCC(F)(F)c1ccc(-c2ccc(NC(=O)C3(c4ccc(C)cc4F)CC3)cc2-c2nnn[nH]2)cn1` [Example 285, N-{4-[6-(1,1-difluoropropyl)py-ridin-3-yl]-3-(1H-tetrazol-5-yl)phenyl}-1-(2-fluoro-4-methylphenyl)cy-clopropanecar-boxamide]: the IC50 came to 0.0158 µM.

As for `CCC(F)(F)c1ccc(-c2ccc(NC(=O)C3(c4ccc(C(F)(F)F)cc4F)CC3)cc2-c2nnn[nH]2)cn1` [Example 286, N-{4-[6-(1,1-difluoropropyl)py-ridin-3-yl]-3-(1H-tetrazol-5-yl)phenyl}-1-[2-fluoro-4-(trifluoromethyl)phenyl]cyclopro-panecarboxamide], the IC50 came to 0.00434 µM. Still for that read-out and setting: for `CCC(F)(F)c1ccc(-c2ccc(NC(=O)C3(c4ccc(OC(F)(F)F)cc4F)CC3)cc2-c2nnn[nH]2)cn1` [Example 287, N-{4-[6-(1,1-difluoropropyl)py-ridin-3-yl]-3-(1H-tetrazol-5-yl)phenyl}-1-[2-fluoro-4-(trifluoromethoxy)phenyl]cyclo-propanecarboxa-mide] the value was 0.00393 µM.

`O=C(Nc1ccc(-c2ccc(C(F)(F)F)nc2)c(-c2nnn[nH]2)c1)C1(c2ccc(C(F)(F)F)c(F)c2)CC1` [Example 288, 1-[3-fluoro-4-(trifluoromethyl)phenyl]-N-{3-(1H-tetrazol-5-yl)-4-[6-(trifluoromethyl)pyridin-3-yl]phenyl}cyclopro-panecarboxa-mide]: the IC50 was determined as 0.00681 µM. On the same count and under the same terms, then `O=C(Nc1ccc(-c2ccc(C(F)(F)F)nc2)c(-c2nnn[nH]2)c1)C1(c2cc(F)cc(C(F)(F)F)c2)CC1` [Example 289, 1-[3-fluoro-5-(trifluoromethyl)phenyl]-N-{3-(1H-tetrazol-5-yl)-4-[6-(trifluoromethyl)pyridin-3-yl]phenyl}cyclopro-panecarboxa-mide], with 0.0502 µM; and `Cc1cc(Cl)ccc1C1(C(=O)Nc2ccc(-c3ccc(C(F)(F)F)nc3)c(-c3nnn[nH]3)c2)CC1` [Example 290, 1-(4-chloro-2-methylphenyl)-N-{3-(1H-tetrazol-5-yl)-4-[6-(trifluoromethyl)pyridin-3-yl]phenyl}cyclopro-panecarboxa-mide], with 0.135 µM. With `O=C(Nc1ccc(-c2ccc(C(F)(F)F)nc2)c(-c2nnn[nH]2)c1)C1(c2ccc(C(F)(F)F)cc2Cl)CC1` [Example 292, 1-[2-chloro-4-(trifluoromethyl)phenyl]-N-{3-(1H-tetrazol-5-yl)-4-[6-(trifluoromethyl)pyridin-3-yl]phenyl}cyclopro-panecarboxa-mide], the concentration for half-maximal inhibition (IC50) was 0.00785 µM. On the same count and under the same terms, then `O=C(Nc1cnc(-c2cnn(C(F)F)c2)c(-c2nnn[nH]2)c1)C1(c2ccc(C(F)(F)F)cc2F)CC1` [Example 296, N-{6-[1-(difluoromethyl)-1H-pyrazol-4-yl]-5-(1H-tetrazol-5-yl)pyridin-3-yl}-1-[2-fluoro-4-(trifluoromethyl)phenyl]cyclopro-panecarboxamide], with 1.73 µM; and `O=C(Nc1ccc(-c2ccc(C(F)(F)F)nc2)c(-c2nnn[nH]2)c1F)C1(c2cccc(Cl)c2)CC1` [Example 297, 1-(3-chlorophenyl)-N-{2-fluoro-3-(1H-tetrazol-5-yl)-4-[6-(trifluoromethyl)pyridin-3-yl]phenyl}cyclopro-panecarboxa-mide], with 0.35 µM; and `O=C(Nc1ccc(-c2ccc(C(F)(F)F)nc2)c(-c2nnn[nH]2)c1F)C1(c2ccc(F)c(F)c2)CC1` [Example 298, 1-(3,4-difluorophenyl)-N-{2-fluoro-3-(1H-tetrazol-5-yl)-4-[6-(trifluoromethyl)pyridin-3-yl]phenyl}cyclopro-panecarboxa-mide], with 0.368 µM. On the same count and under the same terms, then `Cc1ccc(C2(C(=O)Nc3ccc(-c4ccc(C(F)(F)F)nc4)c(-c4nnn[nH]4)c3F)CC2)c(F)c1` [Example 299, 1-(2-fluoro-4-methylphenyl)-N-{2-fluoro-3-(1H-tetrazol-5-yl)-4-[6-(trifluoromethyl)pyridin-3-yl]phenyl}cyclopro-panecarboxa-mide], with 0.241 µM.

Turning to `O=C(Nc1ccc(-c2ccc(C(F)(F)F)nc2)c(-c2nnn[nH]2)c1F)C1(c2ccc(C(F)(F)F)cc2F)CC1` [Example 300], the IC50 came out at 0.0581 µM. On the same count and under the same terms, for `O=C(Nc1ccc(-c2ccc(C(F)(F)F)nc2)c(-c2nnn[nH]2)c1F)C1(c2ccc(OC(F)(F)F)cc2F)CC1` [Example 301, N-{2-fluoro-3-(1H-tetrazol-5-yl)-4-[6-(trifluoromethyl)pyridin-3-yl]phenyl}-1-[2-fluoro-4-(trifluoromethoxy)phenyl]cyclo-propanecarboxa-mide] the value was 0.0361 µM.

For the molecule `O=C(Nc1cc(Cl)c(-c2ccc(C(F)(F)F)nc2)c(-c2nnn[nH]2)c1)C1(c2cccc(Cl)c2)CC1` [Example 302, 1-(3-chlorophenyl)-N-{3-chloro-5-(1H-tetrazol-5-yl)-4-[6-(trifluoromethyl)pyridin-3-yl]phenyl}cyclopro-panecarboxa-mide], the IC50 came to 0.044 µM.

`O=C(Nc1cc(Cl)c(-c2ccc(C(F)(F)F)nc2)c(-c2nnn[nH]2)c1)C1(c2ccc(F)c(F)c2)CC1` [Example 303, N-{3-chloro-5-(1H-tetrazol-5-yl)-4-[6-(trifluoromethyl)pyridin-3-yl]phenyl}-1-(3,4-difluorophenyl)cy-clopropanecar-boxamide]: the IC50 came out at 0.052 µM. Same read-out and setting: for `O=C(Nc1cc(Cl)c(-c2ccc(C(F)(F)F)nc2)c(-c2nnn[nH]2)c1)C1(c2ccc(C(F)(F)F)cc2F)CC1` [Example 304, N-{3-chloro-5-(1H-tetrazol-5-yl)-4-[6-(trifluoromethyl)pyridin-3-yl]phenyl}-1-[2-fluoro-4-(trifluoromethyl)phenyl]cyclopro-panecarboxamide] the value was 0.0185 µM; for `CCOc1ccc(-c2ccc(NC(=O)C3(c4ccccc4)CC3)cc2-c2nnn[nH]2)cn1` [Example 306, N-[4-(6-ethoxypyridin-3-yl)-3-(1H-tetrazol-5-yl)phenyl]-1-phenylcyclopropane-carboxamide], 0.0457 µM; for `CCOc1ccc(-c2ccc(NC(=O)C(C)(C)C)cc2-c2nnn[nH]2)cn1` [Example 309, N-[4-(6-ethoxypyridin-3-yl)-3-(1H-tetrazol-5-yl)phenyl]-2,2-dimethylpropan-amide], 0.587 µM.

The test is the same for the next values; noted with them: in presence of 0.1% BSA, read-out: hB1 IC50.
On to `CCOc1ccc(-c2ccc(NC(=O)C3(c4ccccc4)CC3)cc2-c2nnn[nH]2)cn1` [Example 306, N-[4-(6-ethoxypyridin-3-yl)-3-(1H-tetrazol-5-yl)phenyl]-1-phenylcyclopropane-carboxamide], for which the IC50 is 0.133 µM. Still for that read-out and setting: for `O=C(Nc1ccc(-c2ccc(OCC(F)(F)F)nc2)c(-c2nnn[nH]2)c1)C1(c2cccc(Cl)c2)CC1` [Example 313, 1-(3-chlorophenyl)-N-{3-(1H-tetrazol-5-yl)-4-[6-(2,2,2-trifluoroethoxy)-pyridin-3-yl]phenyl}cyclopropanecarboxamide] the value was 0.191 µM. On the same count and under the same terms, for `COc1ccc(-c2ccc(NC(=O)C3(c4cccc(Cl)c4)CC3)cc2-c2nnn[nH]2)cc1` [Example 314, 1-(3-chlorophenyl)-N-[4′-methoxy-2-(1H-tetrazol-5-yl)biphenyl-4-yl]cyclopropane-carboxamide] the value was 0.34 µM; for `COc1ccc(-c2ccc(NC(=O)C3(c4cccc(Cl)c4)CC3)cc2-c2nnn[nH]2)cc1F` [Example 315, 1-(3-chlorophenyl)-N-[3′-fluoro-4′-methoxy-2-(1H-tetrazol-5-yl)biphenyl-4-yl]cyclopropane-carboxamide], 0.235 µM.

A word on the IC50: it is the point on the concentration scale where inhibition reaches its midpoint.
